Measured values taken from PubChem BioAssay AID256 (DTP/NCI, 2004).
Several values for one entry are separate records, joined by “and”; a condition that tells them apart may be missing. Equal values may be shown once. Inconclusive results and toxic doses are left out. How the source made its calls: active means survival T/C of 150% or more; inactive means T/C below 125% in these data.

System: CD2F1 mice, L1210 leukemia ip, survival T/C
Test: NCI In Vivo Anticancer Drug Screen. Data for tumor model L1210 Leukemia (intraperitoneal) in CD2F1 (CDF1) mice
Conditions: higher = longer survival
Procedure, shortened: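 Tumor-bearing mice (transplanted tumor) were split into treated and vehicle control groups, and the measured endpoint of each treated group was divided by that of its vehicle controls.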

[1] = endpoint: mean survival time, dose: 100.0 mg/kg/injection, schedule: Q01DX009 (ip), vehicle: saline with Tween-80
[2] = endpoint: mean survival time, dose: 200.0 mg/kg/injection, schedule: Q01DX009 (ip), vehicle: saline with Tween-80
[3] = endpoint: mean survival time, dose: 400.0 mg/kg/injection, schedule: Q01DX009 (ip), vehicle: saline with Tween-80
[4] = endpoint: mean survival time, dose: 100.0 mg/kg/injection, schedule: Q04DX003 (ip), vehicle: saline with Tween-80
[5] = endpoint: mean survival time, dose: 200.0 mg/kg/injection, schedule: Q04DX003 (ip), vehicle: saline with Tween-80
[6] = endpoint: mean survival time, dose: 400.0 mg/kg/injection, schedule: Q04DX003 (ip), vehicle: saline with Tween-80
[7] = endpoint: mean survival time, dose: 50.0 mg/kg/injection, schedule: Q01DX009 (ip), vehicle: saline with Tween-80
[8] = endpoint: mean survival time, dose: 100.0 mg/kg/injection, schedule: Q01DX001 (ip), vehicle: saline with Tween-80
[9] = endpoint: mean survival time, dose: 100.0 mg/kg/injection, schedule: Q01DX001 (ip), vehicle: saline
[10] = endpoint: mean survival time, dose: 200.0 mg/kg/injection, schedule: Q01DX001 (ip), vehicle: saline
[11] = endpoint: mean survival time, dose: 400.0 mg/kg/injection, schedule: Q01DX001 (ip), vehicle: saline
[12] = endpoint: mean survival time, dose: 100.0 mg/kg/injection, schedule: Q04DX003 (ip), vehicle: saline
[13] = endpoint: mean survival time, dose: 50.0 mg/kg/injection, schedule: Q01DX009 (ip), vehicle: Klucel (hydroxypropylcellulose) (HPC)
[14] = endpoint: mean survival time, dose: 100.0 mg/kg/injection, schedule: Q01DX009 (ip), vehicle: Klucel (hydroxypropylcellulose) (HPC)
[15] = endpoint: mean survival time, dose: 200.0 mg/kg/injection, schedule: Q01DX009 (ip), vehicle: Klucel (hydroxypropylcellulose) (HPC)
[16] = endpoint: mean survival time, dose: 200.0 mg/kg/injection, schedule: Q01DX001 (ip), vehicle: saline with Tween-80

Measured: T/C

O=C(O)C1=NN(c2ccc(S(=O)(=O)O)cc2)C(=O)C1
inactive: [1] 96 % of control | [2] 92 % of control | [3] 92 % of control

O=C(/C=C/c1ccccn1)c1ccc(Cl)cc1
inactive: endpoint: mean survival time, dose: 100.0 mg/kg/injection, schedule: Q01DX001 (ip), vehicle: Klucel (hydroxypropylcellulose) (HPC) 97 % of control | endpoint: mean survival time, dose: 200.0 mg/kg/injection, schedule: Q01DX001 (ip), vehicle: Klucel (hydroxypropylcellulose) (HPC) 97 % of control | endpoint: mean survival time, dose: 400.0 mg/kg/injection, schedule: Q01DX001 (ip), vehicle: Klucel (hydroxypropylcellulose) (HPC) 105 % of control

CCC(CC)C(O)CC(O)CC(C)C (stereo not given)
inactive: endpoint: mean survival time, dose: 25.0 mg/kg/injection, schedule: Q01DX009 (ip), vehicle: other 97 % of control | endpoint: mean survival time, dose: 50.0 mg/kg/injection, schedule: Q01DX009 (ip), vehicle: other 103 % of control | endpoint: mean survival time, dose: 100.0 mg/kg/injection, schedule: Q01DX009 (ip), vehicle: other 97 % of control | endpoint: mean survival time, dose: 100.0 mg/kg/injection, schedule: Q04DX003 (ip), vehicle: other 86 % of control | endpoint: mean survival time, dose: 400.0 mg/kg/injection, schedule: Q04DX003 (ip), vehicle: other 94 % of control

Cc1ccc(C)c(C(=O)O)c1N
inactive: [4] 95 % of control | [5] 95 % of control | [6] 100 % of control

COc1cc(OC)c(NC(=O)Nc2ccc(N(C)C(C)=O)cc2)cc1Cl
inactive: [7] 88 % of control | [1] 88 % of control | [2] 88 % of control

OCC1OC(c2cccs2)C(O)C1O (stereo not given)
inactive: endpoint: median survival time, dose: 12.5 mg/kg/injection, schedule: Q01DX005 (ip), vehicle: saline 102 % of control | endpoint: median survival time, dose: 25.0 mg/kg/injection, schedule: Q01DX005 (ip), vehicle: saline 98 % of control | endpoint: median survival time, dose: 50.0 mg/kg/injection, schedule: Q01DX005 (ip), vehicle: saline 92 % of control | endpoint: median survival time, dose: 100.0 mg/kg/injection, schedule: Q01DX005 (ip), vehicle: saline 98 % of control | endpoint: median survival time, dose: 200.0 mg/kg/injection, schedule: Q01DX005 (ip), vehicle: saline 106 % of control

CCCCC(O)(c1ccccc1)C1CN(C(C)(C)C)C1c1ccccc1 (stereo not given)
inactive: endpoint: mean survival time, dose: 25.0 mg/kg/injection, schedule: Q01DX001 (ip), vehicle: saline with Tween-80 95 % of control | endpoint: mean survival time, dose: 50.0 mg/kg/injection, schedule: Q01DX001 (ip), vehicle: saline with Tween-80 91 % of control | [8] 86 % of control

Cc1ccccc1NC(=O)/C=C\C(=O)O
inactive: endpoint: mean survival time, dose: 20.0 mg/kg/injection, schedule: Q01DX009 (ip), vehicle: saline with Tween-80 105 % of control | endpoint: mean survival time, dose: 20.0 mg/kg/injection, schedule: Q04DX003 (ip), vehicle: saline with Tween-80 102 % of control | endpoint: mean survival time, dose: 40.0 mg/kg/injection, schedule: Q01DX009 (ip), vehicle: saline with Tween-80 104 % of control | endpoint: mean survival time, dose: 40.0 mg/kg/injection, schedule: Q04DX003 (ip), vehicle: saline with Tween-80 97 % of control | endpoint: mean survival time, dose: 80.0 mg/kg/injection, schedule: Q01DX009 (ip), vehicle: saline with Tween-80 102 % of control | endpoint: mean survival time, dose: 80.0 mg/kg/injection, schedule: Q04DX003 (ip), vehicle: saline with Tween-80 97 % of control

Cc1ccc2nc(O)cc(=O)n2c1
inactive: endpoint: mean survival time, dose: 50.0 mg/kg/injection, schedule: Q01DX001 (ip), vehicle: saline 103 % of control | [9] 103 % of control | [10] 97 % of control | [11] 94 % of control

CN(C)/C=N/N1C(=O)CSC1=S
inactive: endpoint: mean survival time, dose: 25.0 mg/kg/injection, schedule: Q04DX003 (ip), vehicle: saline 107 % of control | endpoint: mean survival time, dose: 50.0 mg/kg/injection, schedule: Q04DX003 (ip), vehicle: saline 103 % of control | [12] 101 % of control and 103 % of control

CN(N=O)c1nnnn1C
inactive: [12] 105 % of control | endpoint: mean survival time, dose: 200.0 mg/kg/injection, schedule: Q04DX003 (ip), vehicle: saline 103 % of control | endpoint: mean survival time, dose: 400.0 mg/kg/injection, schedule: Q04DX003 (ip), vehicle: saline 106 % of control

CN1C(=O)NC(c2ccc(Cl)cc2)(c2ccc(Cl)cc2)C1=O
inactive: endpoint: mean survival time, dose: 12.5 mg/kg/injection, schedule: Q01DX009 (ip), vehicle: distilled water + Tween-80 93 % of control | endpoint: mean survival time, dose: 12.5 mg/kg/injection, schedule: Q01DX009 (ip), vehicle: saline with Tween-80 97 % of control | endpoint: mean survival time, dose: 25.0 mg/kg/injection, schedule: Q01DX009 (ip), vehicle: distilled water + Tween-80 95 % of control | endpoint: mean survival time, dose: 25.0 mg/kg/injection, schedule: Q01DX009 (ip), vehicle: saline with Tween-80 101 % of control | endpoint: mean survival time, dose: 50.0 mg/kg/injection, schedule: Q01DX009 (ip), vehicle: distilled water + Tween-80 103 % of control | [7] 101 % of control | endpoint: mean survival time, dose: 100.0 mg/kg/injection, schedule: Q01DX009 (ip), vehicle: distilled water + Tween-80 98 % of control | [1] 89 % of control | endpoint: mean survival time, dose: 200.0 mg/kg/injection, schedule: Q01DX009 (ip), vehicle: distilled water + Tween-80 98 % of control | [2] 91 % of control

c1ccc2c(c1)Nc1ccccc1S2
inactive: [1] 92 % of control | [4] 98 % of control | [2] 92 % of control | [5] 108 % of control | [3] 89 % of control | [6] 101 % of control

C1=NC(c2ccccn2)=NNC(c2ccccn2)=C1c1ccccc1
inactive: endpoint: mean survival time, dose: 12.5 mg/kg/injection, schedule: Q01DX009 (ip), vehicle: Klucel (hydroxypropylcellulose) (HPC) 97 % of control | endpoint: mean survival time, dose: 25.0 mg/kg/injection, schedule: Q01DX009 (ip), vehicle: Klucel (hydroxypropylcellulose) (HPC) 100 % of control | [13] 95 % of control | [14] 100 % of control | [15] 97 % of control

CCCCCCCCCNP(=O)(OCc1ccccc1)N(CCCl)CCCl (stereo not given)
inactive: endpoint: mean survival time, dose: 25.0 mg/kg/injection, schedule: Q01DX001 (ip), vehicle: DMSO 94 % of control | endpoint: mean survival time, dose: 50.0 mg/kg/injection, schedule: Q01DX001 (ip), vehicle: DMSO 94 % of control | endpoint: mean survival time, dose: 100.0 mg/kg/injection, schedule: Q01DX001 (ip), vehicle: DMSO 95 % of control | endpoint: mean survival time, dose: 200.0 mg/kg/injection, schedule: Q01DX001 (ip), vehicle: DMSO 94 % of control | endpoint: mean survival time, dose: 400.0 mg/kg/injection, schedule: Q01DX001 (ip), vehicle: DMSO 91 % of control

O=C(NCCCl)Nc1cccc(Cl)c1
inactive: [8] 87 % of control | [16] 102 % of control | endpoint: mean survival time, dose: 400.0 mg/kg/injection, schedule: Q01DX001 (ip), vehicle: saline with Tween-80 90 % of control

CCN(CC)Cc1cc(O)ccc1NCCCNc1ccnc2cc(Cl)ccc12
inactive: [4] 96 % of control

c1ccc(OCCSc2ccccc2)cc1
inactive: [9] 102 % of control | [10] 104 % of control | [11] 104 % of control

C1=Cc2ccccc2/C1=C/c1ccc(/C=C2\C=Cc3ccccc32)cc1
inactive: [1] 98 % of control | [2] 89 % of control | endpoint: mean survival time, dose: 700.0 mg/kg/injection, schedule: Q01DX009 (ip), vehicle: saline with Tween-80 89 % of control

COc1cc(/C=N\Nc2ccccc2[N+](=O)[O-])cc(OC)c1OC
inactive: [1] 93 % of control | [2] 103 % of control | [3] 98 % of control

Cc1ccc([N+](=O)[O-])cc1NC(=O)Nc1ccon1
inactive: [13] 108 % of control | [14] 96 % of control | [15] 98 % of control

CCOc1ccc(-n2c(O)c(N=Nc3ccccc3)c(=O)n(-c3ccccc3)c2=S)cc1
inactive: [8] 92 % of control | [16] 102 % of control
